Results taken from patent US12433952B2, “Antibody-drug conjugates targeting folate receptor alpha and methods of use” (ZYMEWORKS BC INC., priority 2022, dated 2025).
Like-named read-outs stand apart in the source and are kept apart here.

Experiments:
Test in all cases: In vitro cytotoxicity of camptothecin analogues (CellTiter-Glo)
Format in all cases: cell-based
[1] = system: SKOV-3 (ovarian cancer); settings: Homo sapiens, SK-OV-3, 96 h, read-out: pIC50 SKOV-3 (converted)
Procedure: (§1) Cytotoxicity of the camptothecin analogues was assessed in vitro as follows.
(§2) In vitro potency was assessed on multiple cancer cell lines: SK-BR-3 (breast cancer), SKOV-3 (ovarian cancer), Calu-3 (lung cancer), ZR-75-1 (breast cancer) and MDA-MB-468 (breast cancer). Serial dilutions of camptothecin analogues were prepared in RPMI 1640+10% FBS, and 20 μL of each dilution was added to 384-well plates. Cells cultured in log-phase growth were detached by brief incubation in 0.05% Trypsin and resuspended in respective culturing media at 20,000 cells/mL (with the exception of ZR-75 cells, which were resuspended at 10,000 cells/mL). 50 μL of cell suspension was then added to the plates containing test articles. Cells were incubated with test articles for 4 d at 37° C. (with the exception of ZR-75 cells, which were incubated for 5 d). Growth inhibition was assessed by CellTiter-Glo® (Promega Corporation, Madison, WI) and luminescence was measured on a plate reader. IC50 values were determined by GraphPad Prism (GraphPad Software, San Diego CA).

[2] = system: SK-BR-3 (breast cancer); settings: Homo sapiens, SK-BR-3, 96 h, read-out: pIC50 SKBR-3 (converted)
Procedure: as §1, §2

[3] = system: Calu-3 (lung cancer); settings: Homo sapiens, Calu-3, 96 h, read-out: pIC50 Calu-3 (converted)
Procedure: as §1, §2

[4] = system: MDA-MB-468 (breast cancer); settings: Homo sapiens, MDA-MB-468, 96 h, read-out: pIC50 MDA-MB-468 (converted)
Procedure: as §1, §2

[5] = system: ZR-75-1 (breast cancer); settings: Homo sapiens, ZR-75-1, 120 h, read-out: pIC50 ZR-75 (converted)
Procedure: as §1, §2

CC[C@@]1(O)C(=O)OCc2c1cc1n(c2=O)Cc2c-1nc1cc(F)c(N)cc1c2CN=[N+]=[N-] [Compound 152, (S)-9-amino-11-(azidomethyl)-4-ethyl-8-fluoro-4-hydroxy-1,12-dihydro-14H-pyrano[3′,4′:6,7]indolizino[1,2-b]quinoline-3,14(4H)-dione]
IC50 [1]: 2.88 nM
IC50 [2]: 3.24 nM
IC50 [3]: 1.48 nM
IC50 [4]: 5.01 nM

CC[C@@]1(O)C(=O)OCc2c1cc1n(c2=O)Cc2c-1nc1cc(F)c(OC)cc1c2CN1CCN(C)CC1 [Compound 107, (S)-4-ethyl-8-fluoro-4-hydroxy-9-methoxy-11-((4-methylpiperazin-1-yl)methyl)-1,12-dihydro-14H-pyrano[3′,4′:6,7]indolizino[1,2-b]quinoline-3,14(4H)-dione]
IC50 ([2]; 4 d incubation): 3.09 nM
IC50 ([3]; 4 d incubation): 4.07 nM
IC50 ([4]; 4 d incubation): 3.89 nM
IC50 ([5]; 5 d incubation): 2.75 nM

CC[C@@]1(O)C(=O)OCc2c1cc1n(c2=O)Cc2c-1nc1cc(F)c(C)cc1c2CN1C2CCC1(CO)CC2 [Compound 121, (S)-4-ethyl-8-fluoro-4-hydroxy-11-((1-(hydroxymethyl)-7-azabicyclo[2.2.1]heptan-7-yl)methyl)-9-methyl-1,12-dihydro-14H-pyrano[3′,4′:6,7]indolizino[1,2-b]quinoline-3,14(4H)-dione]
IC50 [1]: 0.195 nM
IC50 [2]: 0.148 nM
IC50 [3]: 0.145 nM
IC50 [4]: 0.269 nM

CC[C@@]1(O)C(=O)OCc2c1cc1n(c2=O)Cc2c-1nc1cc(F)c(OC)cc1c2CNC(=O)NCc1ccc(N)cc1 [Compound 135, (S)-1-(4-aminobenzyl)-3-((4-ethyl-8-fluoro-4-hydroxy-9-methoxy-3,14-dioxo-3,4,12,14-tetrahydro-1H-pyrano[3′,4′:6,7]indolizino[1,2-b]quinolin-11-yl)methyl)urea]
IC50 [2]: 12.3 nM
IC50 [4]: 10.7 nM
IC50 [5]: 13.2 nM

CC[C@@]1(O)C(=O)OCc2c1cc1n(c2=O)Cc2c-1nc1cc(F)c(N)cc1c2CN1CCN(S(=O)(=O)c2ccccc2)CC1 [Compound 153, (S)-9-amino-4-ethyl-8-fluoro-4-hydroxy-11-((4-(phenylsulfonyl)piperazin-1-yl)methyl)-1,12-dihydro-14H-pyrano[3′,4′:6,7]indolizino[1,2-b]quinoline-3,14(4H)-dione]
IC50 ([1]; 4 d incubation): 0.933 nM
IC50 ([2]; 4 d incubation): 0.513 nM
IC50 ([3]; 4 d incubation): 0.115 nM

CC[C@@]1(O)C(=O)OCc2c1cc1n(c2=O)Cc2c-1nc1cc(F)c(C)cc1c2CNS(N)(=O)=O [Compound 131, (S)—N-((4-ethyl-8-fluoro-4-hydroxy-9-methyl-3,14-dioxo-3,4,12,14-tetrahydro-1H-pyrano[3′,4′:6,7]indolizino[1,2-b]quinolin-11-yl)methyl)methanesulfamide]
IC50 [2]: 1.05 nM
IC50 [3]: 9.12 nM
IC50 [4]: 9.12 nM
IC50 [5]: 0.955 nM

CC[C@@]1(O)C(=O)OCc2c1cc1n(c2=O)Cc2c-1nc1cc(F)c(C)cc1c2CN1CCSCC1CO (stereo partly drawn) [Compound 114, (4S)-4-ethyl-8-fluoro-4-hydroxy-11-((3-(hydroxymethyl)thiomorpholino)methyl)-9-methyl-1,12-dihydro-14H-pyrano[3′,4′:6,7]indolizino[1,2-b]quinoline-3,14(4H)-dione]
IC50 [1]: 0.178 nM
IC50 [2]: 0.107 nM
IC50 [3]: 0.0933 nM
IC50 [4]: 0.417 nM

CC[C@@]1(O)C(=O)OCc2c1cc1n(c2=O)Cc2c-1nc1cc(F)c(OC)cc1c2CNC(=O)NCCO [Compound 137, (S)-1-((4-ethyl-8-fluoro-4-hydroxy-9-methoxy-3,14-dioxo-3,4,12,14-tetrahydro-1H-pyrano[3′,4′:6,7]indolizino[1,2-b]quinolin-11-yl)methyl)-3-(2-hydroxyethyl)urea]
IC50 ([2]; 4 d incubation): 17 nM
IC50 ([3]; 4 d incubation): 63.1 nM
IC50 ([4]; 4 d incubation): 28.2 nM
IC50 ([5]; 5 d incubation): 18.6 nM

CC[C@@]1(O)C(=O)OCc2c1cc1n(c2=O)Cc2c-1nc1cc(F)c(C)cc1c2CN1CC2CC1(CO)CO2 (stereo partly drawn) [Compound 115, (4S)-4-ethyl-8-fluoro-4-hydroxy-11-((4-(hydroxymethyl)-2-oxa-5-azabicyclo[2.2.1]heptan-5-yl)methyl)-9-methyl-1,12-dihydro-14H-pyrano[3′,4′:6,7]indolizino[1,2-b]quinoline-3,14(4H)-dione]
IC50 ([1]; 4 d incubation): 3.8 nM
IC50 ([2]; 4 d incubation): 2.57 nM
IC50 ([3]; 4 d incubation): 1.29 nM
IC50 ([4]; 4 d incubation): 4.17 nM

CC[C@@]1(O)C(=O)OCc2c1cc1n(c2=O)Cc2c-1nc1cc(F)c(C)cc1c2CNS(=O)(=O)Cc1ccc([N+](=O)[O-])cc1 [Compound 124, (S)—N-((4-ethyl-8-fluoro-4-hydroxy-9-methyl-3,14-dioxo-3,4,12,14-tetrahydro-1H-pyrano[3′,4′:6,7]indolizino[1,2-b]quinolin-11-yl)methyl)-1-(4-nitrophenyl) methanesulfonamide]
IC50 ([2]; 4 d incubation): 1.2 nM
IC50 ([3]; 4 d incubation): 1.7 nM
IC50 ([4]; 4 d incubation): 3.47 nM
IC50 ([5]; 5 d incubation): 2.29 nM

CC[C@@]1(O)C(=O)OCc2c1cc1n(c2=O)Cc2c-1nc1cc(F)c(OC)cc1c2CNS(=O)(=O)CCO [Compound 130, (S)—N-((4-ethyl-8-fluoro-4-hydroxy-9-methoxy-3,14-dioxo-3,4,12,14-tetrahydro-1H-pyrano[3′,4′:6,7]indolizino[1,2-b]quinolin-11-yl)methyl)-2-hydroxyethane-1-sulfonamide]
IC50 ([1]; 4 d incubation): 24 nM
IC50 ([2]; 4 d incubation): 14.8 nM
IC50 ([3]; 4 d incubation): 1.66 nM
IC50 ([4]; 4 d incubation): 6.46 nM

CC[C@@]1(O)C(=O)OCc2c1cc1n(c2=O)Cc2c-1nc1cc(F)c(C)cc1c2CN1CCC(F)(F)C(CO)C1 (stereo partly drawn) [Compound 120, (4S)-11-((4,4-difluoro-3-(hydroxymethyl)piperidin-1-yl)methyl)-4-ethyl-8-fluoro-4-hydroxy-9-methyl-1,12-dihydro-14H-pyrano[3′,4′:6,7]indolizino[1,2-b]quinoline-3,14(4H)-dione]
IC50 ([1]; 4 d incubation): 0.251 nM
IC50 ([2]; 4 d incubation): 1.1 nM
IC50 ([3]; 4 d incubation): 0.1 nM
IC50 ([4]; 4 d incubation): 0.191 nM

CC[C@@]1(O)C(=O)OCc2c1cc1n(c2=O)Cc2c-1nc1cc(F)c(C)cc1c2CN1CCS(=O)(=O)CC1CO (stereo partly drawn) [Compound 116, (4S)-4-ethyl-8-fluoro-4-hydroxy-11-((3-(hydroxymethyl)-1,1-dioxidothiomorpholino)methyl)-9-methyl-1,12-dihydro-14H-pyrano[3′,4′:6,7]indolizino[1,2-b]quinoline-3,14(4H)-dione]
IC50 ([1]; 4 d incubation): 12.6 nM
IC50 ([2]; 4 d incubation): 7.08 nM
IC50 ([3]; 4 d incubation): 0.794 nM
IC50 ([4]; 4 d incubation): 9.33 nM

CC[C@@]1(O)C(=O)OCc2c1cc1n(c2=O)Cc2c-1nc1cc(F)c(C)cc1c2CN1CC(CO)C1 [Compound 119, (S)-4-ethyl-8-fluoro-4-hydroxy-11-((3-(hydroxymethyl)azetidin-1-yl)methyl)-9-methyl-1,12-dihydro-14H-pyrano[3′,4′:6,7]indolizino[1,2-b]quinoline-3,14(4H)-dione]
IC50 ([1]; 4 d incubation): 3.72 nM
IC50 ([2]; 4 d incubation): 4.17 nM
IC50 ([3]; 4 d incubation): 1.17 nM
IC50 ([4]; 4 d incubation): 2.75 nM

CC[C@@]1(O)C(=O)OCc2c1cc1n(c2=O)Cc2c-1nc1cc(F)c(C)cc1c2CN1CC2CC(C1)C2O (stereo partly drawn) [Compound 117, (4S)-4-ethyl-8-fluoro-4-hydroxy-11-((6-hydroxy-3-azabicyclo[3.1.1]heptan-3-yl)methyl)-9-methyl-1,12-dihydro-14H-pyrano[3′,4′:6,7]indolizino[1,2-b]quinoline-3,14(4H)-dione]
IC50 ([1]; 4 d incubation): 0.17 nM
IC50 ([2]; 4 d incubation): 0.0955 nM
IC50 ([3]; 4 d incubation): 0.162 nM
IC50 ([4]; 4 d incubation): 0.468 nM

CC[C@@]1(O)C(=O)OCc2c1cc1n(c2=O)Cc2c-1nc1cc(F)c(C)cc1c2CN1CC(F)(CO)C1 [Compound 118, (S)-4-ethyl-8-fluoro-11-((3-fluoro-3-(hydroxymethyl)azetidin-1-yl)methyl)-4-hydroxy-9-methyl-1,12-dihydro-14H-pyrano[3′,4′:6,7]indolizino[1,2-b]quinoline-3,14(4H)-dione]
IC50 ([1]; 4 d incubation): 1.45 nM
IC50 ([2]; 4 d incubation): 1.51 nM
IC50 ([3]; 4 d incubation): 0.933 nM
IC50 ([4]; 4 d incubation): 1.86 nM

CC[C@@]1(O)C(=O)OCc2c1cc1n(c2=O)Cc2c-1nc1cc(F)c(N)cc1c2CN1CCCCC1 [Compound 148, (S)-9-amino-4-ethyl-8-fluoro-4-hydroxy-11-(piperidin-1-ylmethyl)-1,12-dihydro-14H-pyrano[3′,4′:6,7]indolizino[1,2-b]quinoline-3,14(4H)-dione]
IC50 ([2]; 4 d incubation): 0.324 nM
IC50 ([3]; 4 d incubation): 0.204 nM
IC50 ([4]; 4 d incubation): 0.204 nM
IC50 ([5]; 5 d incubation): 0.219 nM

CC[C@@]1(O)C(=O)OCc2c1cc1n(c2=O)Cc2c-1nc1cc(F)c(N)cc1c2CNC(C)=O [Compound 147, (S)—N-((9-amino-4-ethyl-8-fluoro-4-hydroxy-3,14-dioxo-3,4,12,14-tetrahydro-1H-pyrano[3′,4′:6,7]indolizino[1,2-b]quinolin-11-yl)methyl)acetamide]
IC50 ([1]; 4 d incubation): 43.7 nM
IC50 ([2]; 4 d incubation): 5.13 nM
IC50 ([3]; 4 d incubation): 21.4 nM
IC50 ([4]; 4 d incubation): 21.4 nM
